Assay results reported in ChEMBL document CHEMBL1201862, “PubChem BioAssay data set” (2004).
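Protocol summary: plate cells (96-well), add compound at 5 concentrations, incubate 48 h, interpolate endpoints linearly. The concentration for 50% growth inhibition is given as GI50.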 Calls of active or inactive are those of the source. Cut-off read from the data, not from the text of the source: active = GI50 up to about 1.1 µM and inactive = higher.

How the values were obtained:
Assay in all cases: growth of human tumour cells (NCI), 48 h
SN12C = system: SN12C
KM12 = system: KM12
MOLT-4 = system: MOLT-4
CAKI-1 = system: CAKI-1
Malme-3M = system: Malme-3M
OVCAR-5 = system: OVCAR-5
SK-MEL-5 = system: SK-MEL-5
CCRF-CEM = system: CCRF-CEM
M14 = system: M14
Hs-578T = system: Hs-578T
SK-MEL-2 = system: SK-MEL-2
MCF7 = system: MCF7
MDA-MB-435 = system: MDA-MB-435
SF-295 = system: SF-295
TK-10 = system: TK-10
NCI-H23 = system: NCI-H23
A549 = system: A549
SK-OV-3 = system: SK-OV-3
SNB-19 = system: SNB-19
SF-268 = system: SF-268

| SMILES | GI50 (SN12C) | GI50 (KM12) | GI50 (MOLT-4) | GI50 (CAKI-1) | GI50 (Malme-3M) | GI50 (OVCAR-5) | GI50 (SK-MEL-5) | GI50 (CCRF-CEM) | GI50 (M14) | GI50 (Hs-578T) | GI50 (SK-MEL-2) | GI50 (MCF7) | GI50 (MDA-MB-435) | GI50 (SF-295) | GI50 (TK-10) | GI50 (NCI-H23) | GI50 (A549) | GI50 (SK-OV-3) | GI50 (SNB-19) | GI50 (SF-268) |
| --- | --- | --- | --- | --- | --- | --- | --- | --- | --- | --- | --- | --- | --- | --- | --- | --- | --- | --- | --- | --- |
| CN(C)CCCOc1nc2c(c(=O)n(C)c(=O)n2C)n1C.SC1=NC=NC2=NC=NC12 | 4.06 µM (inactive) | 3.85 µM (inactive) | 0.43 µM (active) | 1.02 µM (active) | 0.634 µM (active) | 23.4 µM (inactive) | 11.1 µM (inactive) | 2.17 µM (inactive) | 8.38 µM (inactive) | 16 µM (inactive) | 6.52 µM (inactive) | 2.09 µM (inactive) | 1.7 µM (inactive) | 2.22 µM (inactive) | 0.482 µM (active) | 6.71 µM (inactive) | 22 µM (inactive) | 23.9 µM (inactive) | 88.5 µM (inactive) | 6.31 µM (inactive) |
| C/C(=N/S(=O)(=O)c1ccc(Cl)c(Cl)c1)OCC(C)(C)C | > 100 µM (inactive) | > 100 µM (inactive) | > 100 µM (inactive) | > 100 µM (inactive) | > 100 µM (inactive) | > 100 µM (inactive) | > 100 µM (inactive) | > 100 µM (inactive) | > 100 µM (inactive) | > 100 µM (inactive) | > 100 µM (inactive) | > 100 µM (inactive) | > 100 µM (inactive) | > 100 µM (inactive) | > 100 µM (inactive) | > 100 µM (inactive) | > 100 µM (inactive) | > 100 µM (inactive) | > 100 µM (inactive) | > 100 µM (inactive) |
| Nc1ncnc2c(C3OC(CO)C(O)C3O)c[nH]c12 (stereo not given) | 0.00377 µM (active) | 0.00533 µM (active) | 0.00336 µM (active) | 0.00306 µM (active) | < 0.0135 µM (active) | 0.00804 µM (active) | 0.00564 µM (active) | 0.00224 µM (active) | 0.0123 µM (active) | 0.00129 µM (active) | 0.01 µM (active) | 0.0152 µM (active) | 0.0314 µM (active) | 0.01 µM (active) | 0.0705 µM (active) | 0.0131 µM (active) | 0.00399 µM (active) | 0.000552 µM (active) | 0.0131 µM (active) | 0.01 µM (active) |
| Cc1coc2c1C(=O)C(=O)c1c-2ccc2c1CCCC2(C)C [TANSHINONE IIA] | 3.7 µM (inactive) | 3.76 µM (inactive) | 3.18 µM (inactive) | 1.95 µM (inactive) | 0.508 µM (active) | 9.42 µM (inactive) | 0.213 µM (active) | 7.52 µM (inactive) | 1.06 µM (active) | 3.73 µM (inactive) | 2.28 µM (inactive) | 2.18 µM (inactive) | 1.48 µM (inactive) | 2.48 µM (inactive) | 21.6 µM (inactive) | 1.14 µM (inactive) | 1.48 µM (inactive) | 21.3 µM (inactive) | 2.52 µM (inactive) | 3.53 µM (inactive) |
| CC[C@]1(Cc2ccc(OC)c(OC)c2)C=[N+]([O-])O[C@H](OC2CCCC2(c2ccccc2)c2ccccc2)[C@@H]1OC(C)=O (stereo not given in full) | 4.12 µM (inactive) | 2.84 µM (inactive) | 2.67 µM (inactive) | 2.95 µM (inactive) | 2.03 µM (inactive) | 16.7 µM (inactive) | 3.55 µM (inactive) | 4.1 µM (inactive) | 4.59 µM (inactive) | 13.1 µM (inactive) | 4.62 µM (inactive) | 2.43 µM (inactive) | 2.41 µM (inactive) | 4.92 µM (inactive) | 3.02 µM (inactive) | 5.25 µM (inactive) | 3.54 µM (inactive) | 14.5 µM (inactive) | 5.89 µM (inactive) | 4.76 µM (inactive) |
| O=C1Cc2c(-c3cccs3)cc(-c3ccccc3)nc2-c2ccccc2N1 | 67.5 µM (inactive) | 14 µM (inactive) | > 100 µM (inactive) | 21.6 µM (inactive) | 9.95 µM (inactive) | > 100 µM (inactive) | 19.5 µM (inactive) | > 100 µM (inactive) | 28.2 µM (inactive) | 2.14 µM (inactive) | 86.3 µM (inactive) | 96.8 µM (inactive) | 78 µM (inactive) | 47.4 µM (inactive) | > 100 µM (inactive) | > 100 µM (inactive) | 93.1 µM (inactive) | 24.4 µM (inactive) | 47.9 µM (inactive) | 10.8 µM (inactive) |
| COc1cccc2c1C(=O)c1c(O)c3c(c(O)c1C2=O)C[C@@](O)(C(=O)CO)C[C@@H]3OC1CC2C(OCN3CN2COC2C(C)OC(O[C@H]4C[C@](O)(C(=O)CO)Cc5c(O)c6c(c(O)c54)C(=O)c4c(OC)cccc4C6=O)CC23)C(C)O1 (stereo not given in full) | 0.0231 µM (active) | 0.0635 µM (active) | 0.00269 µM (active) | 0.0927 µM (active) | 0.0444 µM (active) | 0.131 µM (active) | 0.0614 µM (active) | 0.00916 µM (active) | 0.0861 µM (active) | 0.0559 µM (active) | 0.0362 µM (active) | 0.0179 µM (active) | 0.0891 µM (active) | 0.0498 µM (active) | 0.0412 µM (active) | 0.027 µM (active) | 0.0269 µM (active) | 0.0681 µM (active) | 0.0272 µM (active) | 0.0319 µM (active) |
| O=C1OCC(c2ccc(Cl)cc2)=C1Cl | 26.7 µM (inactive) | 15.4 µM (inactive) | 32.1 µM (inactive) | 30.5 µM (inactive) | 15.6 µM (inactive) | 22.3 µM (inactive) | 17.1 µM (inactive) | 29.2 µM (inactive) | 18.8 µM (inactive) | 45.8 µM (inactive) | 22.9 µM (inactive) | 17.5 µM (inactive) | 33.2 µM (inactive) | 39.9 µM (inactive) | 28.3 µM (inactive) | 19.1 µM (inactive) | 35 µM (inactive) | > 100 µM (inactive) | > 100 µM (inactive) | 21.1 µM (inactive) |
| c1ccc2c(c1)ccc1cc3cc(NCCCCNc4ccc5nc6c(ccc7ccccc76)cc5c4)ccc3nc12 | 1.41 µM (inactive) | 0.236 µM (active) | 0.184 µM (active) | 2.01 µM (inactive) | 1.55 µM (inactive) | 0.261 µM (active) | 1.32 µM (inactive) | 0.427 µM (active) | 1.72 µM (inactive) | 1.96 µM (inactive) | 1.91 µM (inactive) | 0.262 µM (active) | 1.83 µM (inactive) | 1.38 µM (inactive) | 1.64 µM (inactive) | 2 µM (inactive) | 1.51 µM (inactive) | 2.37 µM (inactive) | 0.352 µM (active) | 1.82 µM (inactive) |
| COc1ccc2c(c1)C(=O)CC(N)C2 (stereo not given) | > 100 µM (inactive) | > 100 µM (inactive) | 19.5 µM (inactive) | > 100 µM (inactive) | > 100 µM (inactive) | > 100 µM (inactive) | > 100 µM (inactive) | 64.9 µM (inactive) | > 100 µM (inactive) | 42.2 µM (inactive) | > 100 µM (inactive) | > 100 µM (inactive) | > 100 µM (inactive) | > 100 µM (inactive) | > 100 µM (inactive) | > 100 µM (inactive) | > 100 µM (inactive) | > 100 µM (inactive) | > 100 µM (inactive) | > 100 µM (inactive) |
| O=C1CC2(CCCc3sccc32)C(=O)N1 (stereo not given) | > 100 µM (inactive) | > 100 µM (inactive) | > 100 µM (inactive) | > 100 µM (inactive) | > 100 µM (inactive) | > 100 µM (inactive) | > 100 µM (inactive) | > 100 µM (inactive) | > 100 µM (inactive) | > 100 µM (inactive) | > 100 µM (inactive) | > 100 µM (inactive) | > 100 µM (inactive) | > 100 µM (inactive) | > 100 µM (inactive) | > 100 µM (inactive) | > 100 µM (inactive) | > 100 µM (inactive) | > 100 µM (inactive) | > 100 µM (inactive) |
| CC(NNC(=O)CC(=O)N(C(=O)c1ccccc1)c1ccc(Cl)cc1)c1cc2ccccc2oc1=O (stereo not given) | > 10 µM (inactive) | > 10 µM (inactive) | > 10 µM (inactive) | > 10 µM (inactive) | > 10 µM (inactive) | > 10 µM (inactive) | > 10 µM (inactive) | > 10 µM (inactive) | > 10 µM (inactive) | > 10 µM (inactive) | > 10 µM (inactive) | > 10 µM (inactive) | > 10 µM (inactive) | > 10 µM (inactive) | > 10 µM (inactive) | > 10 µM (inactive) | > 10 µM (inactive) | > 10 µM (inactive) | > 10 µM (inactive) | > 10 µM (inactive) |
| COc1ccc(/C=N/n2c(-c3ccccc3)n[nH]c2=O)c(OC)c1 | 44 µM (inactive) | 45.8 µM (inactive) | > 100 µM (inactive) | 41.2 µM (inactive) | > 100 µM (inactive) | > 92.9 µM (inactive) | > 68.9 µM (inactive) | > 100 µM (inactive) | 98.2 µM (inactive) | 37.2 µM (inactive) | 48.2 µM (inactive) | 49.4 µM (inactive) | > 100 µM (inactive) | 32.7 µM (inactive) | 27 µM (inactive) | 39.4 µM (inactive) | 36.7 µM (inactive) | 31.8 µM (inactive) | 1.13 µM (inactive) | 22.3 µM (inactive) |
| C[C@]12CC[C@@H]3c4ccc(OC(=O)c5ccccc5)cc4CC[C@H]3[C@@H]1CCC2OC(=O)c1cccc2c(=O)c3ccccc3[nH]c12 (stereo not given in full) | 14.4 µM (inactive) | 15.4 µM (inactive) | 63 µM (inactive) | 27 µM (inactive) | 24.5 µM (inactive) | 18.2 µM (inactive) | 24.1 µM (inactive) | 24.7 µM (inactive) | 17.1 µM (inactive) | 18.1 µM (inactive) | 14.1 µM (inactive) | 12.2 µM (inactive) | 3.77 µM (inactive) | 18.2 µM (inactive) | 19.1 µM (inactive) | 20.8 µM (inactive) | 14.2 µM (inactive) | 30.4 µM (inactive) | 27.4 µM (inactive) | 22.8 µM (inactive) |
